We go through three molecules from patent US7378406B2, “Use of antiprogestins for prophylaxis and treatment of hormone-dependent diseases” (Schering AG, priority 2000, dated 2008).

Data set [1] relates to DMBA-induced mammary carcinoma of the rat. Put plainly: DMBA-induced breast cancer model in rat (therapy experiment/dose-response study). Format: in vivo, rat (female Sprague-Dawley). How it is done: Immature female Sprague-Dawley rats (49-51 days old; 10 animals/group) were used in this study. Mammary tumors were induced by a single oral administration of 10 mg 7,12-dimethylbenz[a]anthracene (DMBA, Serva/Heidelberg). Rats with at least one established tumor with a size of more than 150 mm^2 were treated for 4 weeks by: 1) solvent control, 2) ovariectomy at treatment start, 3) antiprogestin (I), 0.5 mg/kg s.c., 4) antiprogestin (I), 2 mg/kg s.c., 5) antiprogestin (I), 5 mg/kg s.c., 6) antiprogestin (I), 10 mg/kg s.c., and 7) onapristone, 5 mg/kg, s.c., daily. As a parameter for growth inhibition the change of tumor area (in % with respect to initial tumor size) determined by weekly caliper measurements was used. For statistical analysis of intergroup differences of mean values the Kruskal-Wallis-test was used.

Data set [2] concerns NMU-induced mammary carcinoma of the rat. In words: NMU-induced breast cancer model in rat (therapy experiment). It is filed as in vivo, rat (female Sprague-Dawley). The settings on record: 4 weeks. How it is done:
Tumors were induced by a single intravenous injection of NMU (nitrosomethylurea, 50 mg/kg) in female Sprague-Dawley rats (obtained from Tierzucht Schönwalde, age 50-55 days). Starting 10 days later, rats with at least one established tumor were treated for 4 weeks by: 1) solvent control, 2) ovariectomy at treatment start, 3) antiprogestin (I), 1.0 mg/kg/day, 4) antiprogestin (I), 0.5 mg/kg/day and 5) onapristone, 5 mg/kg/day. As a parameter for growth inhibition the change of tumor area (in % of initial tumor size) determined by weekly caliper measurements was used. For statistical analysis of intergroup differences of mean values the Kruskal-Wallis-test was used.

The subject of data set [3] is DMBA-induced mammary carcinoma of the rat. Put plainly: DMBA-induced breast cancer model in rat (prevention experiment). It is filed as in vivo, rat (female Sprague-Dawley). The settings on record: 6 days/week, start 20 days after DMBA, end of experiment. As for the experimental part: Immature female Sprague-Dawley rats (49-51 days old; 10 animals/group) were used in this study. The carcinogen 7,12-dimethylbenz[a]anthracene (DMBA) was given as a single oral administration (10 mg). Treatment was started 20 days later as followed: 1) solvent control, 2) ovariectomy at treatment start, 3) tamoxifen, 1 mg/kg s.c., 4) antiprogestin (I), 3 mg/kg, s.c., 6 days/week. Rats were examined weekly for breast tumors by palpation. As a parameter for the prophylactic effect the tumor incidence (number of animals/group with tumors in %) was determined. For a further description and evaluation of DMBA and NMU prevention models, see R. G. Metha, European Journal of Cancer 36 (2000), pp. 1275-1282.

For data set [4], the system named is NMU-induced mammary carcinoma of the rat. In words: NMU-induced breast cancer model in rat (prevention experiment). Format: in vivo, rat (female Sprague-Dawley). The settings on record: 3 mg/kg s.c., 6 days/week, start 10 days after NMU; end of experiment, after 27 weeks. As for the experimental part:
Tumors were induced by a single intravenous injection of NMU (nitrosomethylurea, 50 mg/kg) in female Sprague-Dawley rats (obtained from Tierzucht Schonwalde, age 50-55 days). Treatment was started 10 days later as followed: 1) solvent control, 2) ovariectomy at treatment start, 3) tamoxifen, 3 mg/kg s.c., 4) antiprogestin (I), 3 mg/kg, s.c., 5) letrozole, 3 mg/kg s.c., 6) raloxifen, 3 mg/kg s.c., 6 days/week. Rats were examined weekly for breast tumors by palpation. As a parameter for the prophylactic effect the tumor incidence (number of animals/group with tumors in %) was determined. For a further description and evaluation of DMBA and NMU prevention models, see R. G. Metha, European Journal of Cancer 36 (2000), pp. 1275-1282.

Another data set relates to T47D breast cancer cells. In words: T47D human xenograft (therapy experiment). To be noted: 10 mg/kg s.c.; scid mice with estradiol pellets. It is filed as in vivo, human xenograft in Fox Chase scid mice. As for the experimental part:
(§1) Female Fox Chase scid mice (M&B) were supplemented with estradiol pellets (Innovative Research of America). T47D breast cancer cells, obtained from cell culture and suspended in matrigel, were implanted s.c. in the inguinal region of the mice. Treatment was started when the tumors were approximately 25 mm^2 in size. Treatment was continued until progression of the tumors. Experimental groups were: 1) control (vehicle), 2) ovariectomy, 3) antiprogestin (I), 10 mg/kg s.c.Tumor area was determined by caliper measurements. The Kruskal Wallis test was used for statistical analysis of intergroup differences of mean values.
In general terms: In xenograft studies the graft and the host belong to different species.

Another data set deals with MCF7 breast cancer cells. In words: MCF7 human xenograft (therapy experiment). Format: in vivo, human xenograft in Fox Chase scid mice. The settings on record: 10 mg/kg s.c.; scid mice with estradiol pellets. As for the experimental part: as §1, with “MCF7” for “T47D”, “s.c. Tumor” for “s.c.Tumor”
Data set [5] in a line: Further endocrine side effects (general statement).
Data set [6] is described as follows: Bioavailability (general statement). It is filed as in vivo. The settings on record: oral administration.

Structures are written as SMILES.

`CN(C)c1ccc([C@H]2C[C@]3(C)[C@@H](CC[C@]3(O)CCCO)[C@@H]3CCC4=CC(=O)CCC4=C32)cc1` [Onapristone, onapristone, reference compound]: in data set [1] (5 mg/kg s.c. daily, 4 weeks), the “tumor growth inhibition relative to antiprogestin (I)” value is reported as “distinctly less effective than antiprogestin (I) at comparable doses”. Also, the “tumor growth inhibition relative to antiprogestin (I) at 0.5 mg/kg” value in data set [2] (5 mg/kg/day) is “distinctly less effective than antiprogestin (I)”.

Take `CC(=O)c1ccc([C@H]2C[C@@]3(C)[C@@H](CC[C@@]3(O)C(F)(F)C(F)(F)F)[C@@H]3CCC4=CC(=O)CCC4=C32)cc1` [antiprogestin (I), 11β-(4-acetylphenyl)-17β-hydroxy-17α-(1,1,2,2,2-pentafluoroethyl)-estra-4,9-dien-3-one]: the “tumor incidence (number of animals/group with tumors in %)” value in data set [3] (3 mg/kg s.c., after 22 weeks) amounted to 10%; in data set [4] it was 10%. Besides, the “tumor growth (change of tumor area) compared with the control” value in data set [1] (0.5 mg/kg s.c. daily, 4 weeks) is recorded as “did not significantly prevent the tumor from growing”; in data set [1] (doses of or above 2 mg/kg s.c. daily, 4 weeks), “significant inhibition of tumor growth”; in data set [2] (0.5 mg/kg/day), “significant inhibition of tumor growth”; in data set [2] (1.0 mg/kg/day), “significant inhibition of tumor growth”. In data set [1] (2 mg/kg s.c. daily, 4 weeks), the “rats with complete tumor regression” value was determined as 50%. Further, the “tumor growth (change of tumor area), dose-response” value in data set [1] (2 mg/kg s.c. daily, 4 weeks) is reported as “maximal growth inhibition”; in data set [1] (10 mg/kg s.c. daily, 4 weeks (highest dose)) it was “comparable to that of 2 mg/kg”. Moreover, the “tumor growth (tumor area)” value with T47D breast cancer cells is “inhibition of tumor growth, almost comparable to the effect of conventional estrogen deprivation therapy (ovariectomy)”; with MCF7 breast cancer cells, “inhibition of tumor growth, almost comparable to the effect of conventional estrogen deprivation therapy (ovariectomy)”. In addition, the “further endocrine side effects, e.g. androgen, estrogen or antiglucocorticoid activity” value in data set [5] is reported as “only very weak, if present at all”. Moreover, the bioavailability result in data set [6] is recorded as “high”.

Consider `CC/C(=C(\c1ccccc1)c1ccc(OCCN(C)C)cc1)c1ccccc1` [tamoxifen, reference compound], for which, in data set [3] (1 mg/kg s.c.), the “tumor incidence (number of animals/group with tumors in %)” value is reported as 60%.
